In a melting point compilation (Tetko et al.; mined from patent text by program, amines drawn as free bases though some values may be those of a salt) one finds melting point data, which are given here for 37 compounds.

A value given as a limit tells only on which side of the number the result lay.

The melting point is the temperature of the solid-liquid transition. On to `Cc1nn(-c2cc(Oc3ccc([N+](=O)[O-])cc3)c(Cl)cc2F)c(=O)n1C(F)F`, for which the melting point was in the range of 115 to 117 °C.

For `COC(=O)c1cc([N+](=O)[O-])c(Oc2cc(C)cc(C)c2)c(S(N)(=O)=O)c1`, the melting point lay in the range of 197 to 198 °C.

For the compound `CCCCCNc1nc2ccccc2n1C1CCN(C2(c3ccccc3)CCCCCC2)CC1`, the melting point was in the range of 156 to 159 °C.

In the case of `Cc1cn(C2CC(ON)C(CO[Si](C)(C)C(C)(C)C)O2)c(=O)[nH]c1=O` (configuration not stated), the melting point is 171 °C.

As to `Cc1cc(COc2ccc(F)c(C(N)=O)c2F)ccn1`, the melting point fell in the range of 185 to 186 °C.

Compound `O=C(NCCCCCCCNC(=O)c1ccc(OC(Cl)(Cl)Cl)cc1)c1ccc(OC(Cl)(Cl)Cl)cc1` had a melting point of 152 to 153 °C.

The compound `O=[N+]([O-])c1ccc(Oc2ccc(Oc3ccc(Oc4ccc(Oc5ccc([N+](=O)[O-])cc5)cc4)cc3)cc2)cc1` returned a melting point of 142 to 143 °C.

Take `Cc1cc2sccc2c(N)n1`: the melting point worked out at 136 °C.

`O=C1CCCC2=C1C(c1cccnc1)C1=C(CCS1)N2` (configuration not stated) registered a melting point above 250 °C.

`CC1(C)Cc2c(C(=O)N3CCCC3)sc(Sc3ccccc3)c2-c2oncc21` displayed a melting point of 49 to 52 °C.

For the compound `CN(C)CCCN=Cc1ccc2ccccc2c1`, the melting point lay in the range of 29 to 31 °C.

`COc1cccc(C(=N)NN2CCc3ccccc3C2=O)c1` displayed a melting point of 176 to 177 °C.

In the case of `O=c1[nH]ncc2c1c(O)nc1ccccc12`, the melting point is above 350 °C.

With `CCOC(=O)c1ncc2[nH]c3cccc(COC)c3c2c1C`, the melting point lay in the range of 133 to 135 °C.

Regarding `O=C1CCC(N2Cc3c(CNC(=O)Nc4ccc(Cl)c(Cl)c4)cccc3C2=O)C(=O)N1` (configuration not stated), the melting point is 253 to 255 °C.

`c1ccc2c(c1)Cn1ncnc1-2` registered a melting point of 116 to 117 °C.

As to `Cc1oc(-c2ccccc2)nc1CCOc1ccc(C=CC=CC=C2OC(=O)NC2=O)cc1`, the melting point was in the range of 209 to 211 °C.

With `COc1ccc(Cn2c(-c3ccco3)nc3c(-c4ccco4)ncnc32)cc1`, the melting point was in the range of 134 to 136 °C.

In turn, `CC[C@H](C)[C@H](NC(=O)Nc1cccc(C)c1)C(=O)N[C@H](CO)Cc1c[nH]c2ccccc12` returned a melting point of 185 to 186 °C.

The compound `CCC(=O)N1N=C(c2ccc(N)cc2)c2cc(C)ccc2CC1C` (configuration not stated) displayed a melting point of 166 to 168 °C.

Compound `CC(C)c1ccc2c(=O)c(S(C)=O)cn(C)c2c1` (configuration not stated) displayed a melting point of 214 to 215 °C.

Take `COc1cc(C#CC(=O)c2ccccc2)cc(OC)c1OC`: the melting point was in the range of 158 to 160 °C.

In turn, `Nc1c(-c2ccccc2)c(=O)[nH]c2cc(Cl)ccc12` showed a melting point of 337 to 338 °C.

In the case of `Cc1[nH]cnc1C(c1ccccc1)c1ccccc1`, the melting point is 198 to 204 °C.

Turning to `Cc1cc2nncc(O)c2cc1C`, the melting point was above 260 °C.

As for `COCc1ccc(-c2coc3ccc(-c4nnc(C)o4)cc23)cc1`, the melting point was 158 to 159 °C.

Take `Cc1ccc(N=CN(C)SN(C2CCCCC2)C2CCCCC2)c(C)c1`: the melting point is 97 to 98 °C.

In the case of `CSc1ncccc1OCCO`, the melting point worked out at 80 °C.

In turn, `C1CNCCNCCCNCCNCCNC1` came in with a melting point of 49 to 51 °C.

Take `CC(C)Oc1ccc2c(=O)c3ccc(O)cc3oc2c1`: the melting point was 268 to 281 °C.

Turning to `Nc1ccc(S(=O)(=O)c2cc(-c3ccccc3Cl)nc(N3CCCC3)c2)cc1`, the melting point lay within 188 to 190 °C.

As to `CC12CCC3C(CCC4CC(O)CCC43C)C1CCC2C#CBr` (configuration not stated), the melting point lay in the range of 165 to 167 °C.

In the case of `NNC(=O)CCCCC(=O)N(NC(=O)c1ccccc1O)C(=O)c1ccccc1O`, the melting point stood at 252 °C.

`CC(C)(c1ccccc1)N1CCC=C(c2ccccc2)C1=O`: the melting point was in the range of 119 to 120 °C.

For `COc1cc(CC#N)c([N+](=O)[O-])cc1C(F)(F)F`, the melting point fell in the range of 103 to 104 °C.

`CCC1N=C(c2ccccc2F)c2c(ccc(N=C=O)c2Cl)N(C)C1=O` (configuration not stated) came in with a melting point of 243 to 244 °C.

`CC1CC=C(c2nnn(C)n2)CN1C` (configuration not stated) displayed a melting point of 93 to 95 °C.
